Experimental data as given in US20060069132A1, “Azolecarboxamide herbicides” (priority 2004, published 2006).

Experiments:
[1] = tested on: barnyardgrass; test: Test A pre-/postemergence herbicide test; format: in vivo, Echinochloa crus-galli
Procedure, shortened: (§1)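 Both application timings were run together: directed soil spray over freshly planted seeds in sandy loam, and runoff spray onto 2–10 cm seedlings. Evaluation after ~10 days in greenhouse used a 0–100 visual scale versus untreated controls.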

[2] = tested on: large crabgrass; test: Test A pre-/postemergence herbicide test; format: in vivo, Digitaria sanguinalis
Procedure, shortened: as §1

[3] = tested on: Surinam grass; test: Test C pre-/postemergence herbicide test; format: in vivo, Urochloa decumbens; conditions: for Plant response rating, Surinam Grass / Plant response rating (0 = no effect, 100 = complete control), Surinam Grass: preemergence
Procedure, shortened: (§2)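 Emerged plants at the 1- to 4-leaf stage (2–18 cm), or freshly planted seeds, received test chemicals in a non-phytotoxic solvent mixture with surfactant. Response was visually scored against controls after 12 to 14 days in the greenhouse, on a 0 (no effect) to 100 (complete control) scale.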

[4] = tested on: rice; test: Test B pre-/postemergence herbicide test; format: in vivo, Oryza sativa; conditions: for Rice plant response rating (0 to 100 scale) / Plant response rating, Rice: preemergence
Procedure, shortened: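 Species tested were Echinochloa crus-galli, Ipomoea coccinea, Xanthium strumarium and Oryza sativa, treated both before emergence and at the 1- to 4-leaf stage; rice and barnyardgrass were also tested under flooding at 2 leaves. Greenhouse incubation lasted 13–15 days before visual 0–100 scoring.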

[5] = tested on: common (oilseed) sunflower; test: Test C pre-/postemergence herbicide test; format: in vivo, Helianthus annuus; conditions: for Plant response rating, Sunflower / Plant response rating (0 = no effect, 100 = complete control), Sunflower: preemergence
Procedure, shortened: as §2

[6] = tested on: barnyardgrass; test: Test C flooded paddy test; format: in vivo, Echinochloa crus-galli; conditions: for Plant response rating, Barnyardgrass: 500 g ai/ha, visual rating after 12 to 14 days
Procedure, shortened: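 Injury scored visually against controls on a 0 (no effect) to 100 (complete control) scale, 12 to 14 days after treatment in greenhouse. Flooded paddy plants treated at 2-leaf stage; postemergence plants at 1- to 4-leaf stage, 2 to 18 cm tall.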

[7] = tested on: morningglory; test: Test A pre-/postemergence herbicide test; format: in vivo, Ipomoea spp.
Procedure, shortened: as §1

[8] = tested on: rice; test: Test C flooded paddy test; format: in vivo, Oryza sativa; conditions: for Plant response rating, Rice: 500 g ai/ha, visual rating after 12 to 14 days
Procedure, shortened: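 Plants were grown to the 1- to 4-leaf stage (2–18 cm) and then treated postemergence, or grown to the 2-leaf stage for the flooded paddy test. They were held in a greenhouse for 12 to 14 days and then scored by eye against controls, where 0 is no effect and 100 is complete control.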

[9] = Postemergence, 500 g ai/ha, 0 to 100 scale, 0 no effect, 100 complete control
[10] = Postemergence, 2000 g ai/ha, 0 to 100 scale, 0 no effect, 100 complete control
[11] = Preemergence, 2000 g ai/ha, visual rating, 0 to 100 scale (0 no effect, 100 complete control)
[12] = preemergence, 500 g ai/ha, visual injury, 0 to 100 scale (0 no effect, 100 complete control)
[13] = 500 g ai/ha, scale 0 to 100 (0 no effect, 100 complete control), visual, 12 to 14 days
[14] = 125 g ai/ha, 0 = no effect, 100 = complete control
[15] = 500 g ai/ha, visual rating, 0 = no effect, 100 = complete control
[16] = 62 g ai/ha, scale 0 to 100 (0 no effect, 100 complete control)
[17] = 125 g ai/ha, scale 0 to 100 (0 no effect, 100 complete control)
[18] = 250 g ai/ha, scale of 0 to 100, 0 is no effect, 100 is complete control
[19] = scale 0 to 100 (0 no effect, 100 complete control)
[20] = 125 g ai/ha, scale 0 (no effect) to 100 (complete control), visual, 12 to 14 days
[21] = 250 g ai/ha, scale 0 to 100 (0 no effect, 100 complete control), visual, 12 to 14 days
[22] = Preemergence, 500 g ai/ha, scale 0 to 100, 0 no effect, 100 complete control
[23] = 125 g ai/ha, 0 to 100 scale, 0 is no effect, 100 is complete control
[24] = 125 g ai/ha, scale of 0 to 100, 0 is no effect, 100 is complete control
[25] = Preemergence, 500 g ai/ha, visual rating, 0 to 100 scale (0 no effect, 100 complete control)
[26] = Preemergence, 2000 g ai/ha, 0 to 100 scale, 0 no effect, 100 complete control

Row | Compound | Plant response rating, Barnyardgrass [1, 10] | Plant response rating, Crabgrass, Large [2, 10] | Plant response rating, Surinam Grass ([3]; 62 g ai/ha, scale 0 to 100) | Plant response rating, Surinam Grass ([3]; 250 g ai/ha, scale 0-100) | Plant response rating, Surinam Grass [3, 13] | Rice plant response rating (0 to 100 scale) [4, 14] | Plant response rating, Rice [4, 15] | Plant response rating, Sunflower ([5]; 62 g ai/ha, scale 0 to 100) | Plant response rating, Sunflower ([5]; 250 g ai/ha, scale 0-100) | Plant response rating, Sunflower [5, 13] | Barnyardgrass plant response rating [6, 16] | Barnyardgrass plant response rating [6, 17] | Barnyardgrass plant response rating [6, 18] | Plant response rating, Barnyardgrass [6, 19] | Plant response rating, Morningglory [7, 10] | Rice plant response rating ([8]; 62 g ai/ha, scale 0 to 100) | Rice plant response rating [8, 17] | Rice plant response rating [8, 18] | Plant response rating, Rice [8, 19] | Plant response rating (0 = no effect, 100 = complete control), Surinam Grass ([3]; 62 g ai/ha) | other results
1 | CCNC(=O)c1ccc(F)c(NC(=O)C2CC(C(C)(C)C)=NN2CC)c1 (racemic) [Compound 269] | 80 | 80 | 5 | 85 | 95 | 70 | 90 | 0 | 5 | 15 | 45 | 65 | 75 | 90 | 35 | 45 | 50 | 75 | 80 | – | Barnyardgrass plant response rating [1, 9]: 70; Barnyardgrass plant response rating [1, 11]: 100; Barnyardgrass plant response rating [1, 12]: 95; Crabgrass, Large plant response rating [2, 9]: 35; Crabgrass, Large plant response rating [2, 11]: 100; Crabgrass, Large plant response rating [2, 12]: 65; Morningglory plant response rating [7, 9]: 20; Morningglory plant response rating [7, 11]: 30; Morningglory plant response rating [7, 12]: 20
2 | CCN1N=C(C(C)(C)C)CC1C(=O)Nc1cc(C(=O)N2CC=CC2)ccc1F (racemic) [Compound 310] | – | – | 5 | 30 | 50 | 40 | 80 | 0 | 0 | 0 | 35 | 50 | 70 | 90 | – | 35 | 60 | 70 | 80 | – | –
3 | C=CCn1nc(C(C)(C)C)cc1C(=O)Nc1cccc(C(=O)NCC)c1 [Compound 56] | – | – | – | – | – | – | – | – | – | – | 0 | – | 65 | 80 | – | – | – | 25 | 35 | 10 | Plant response rating, Surinam Grass [3, 20]: 15; Plant response rating, Surinam Grass [3, 21]: 60; Surinam Grass plant response rating [3, 22]: 75; Rice plant response rating ([4]; Preemergence, 500 g ai/ha, scale 0 to 100): 70; Plant response rating, Rice [4, 23]: 40; Plant response rating (0 = no effect, 100 = complete control), Sunflower ([5]; 62 g ai/ha): 0; Plant response rating, Sunflower [5, 20]: 0; Plant response rating, Sunflower [5, 21]: 0; Sunflower plant response rating [5, 22]: 0; Barnyardgrass plant response rating [6, 24]: 20; Rice plant response rating [8, 16]: 0; Rice plant response rating [8, 24]: 15
4 | CCn1nc(C(C)(C)C)cc1C(=O)Nc1cccc(C(=O)NCC2CC2)c1 [Compound 62] | 100 | 60 | – | – | – | – | – | – | – | – | 5 | – | 30 | 55 | 20 | – | – | 45 | 65 | 5 | Plant response rating, Barnyardgrass [1, 9]: 65; Barnyardgrass plant response rating [1, 25]: 50; Barnyardgrass plant response rating [1, 26]: 95; Plant response rating, Crabgrass, Large [2, 9]: 25; Crabgrass, Large plant response rating [2, 25]: 70; Crabgrass, Large plant response rating [2, 26]: 85; Plant response rating, Surinam Grass ([3]; 31 g ai/ha, scale 0 to 100): 0; Plant response rating, Surinam Grass [3, 20]: 10; Plant response rating, Surinam Grass [3, 21]: 50; Plant response rating, Rice [4, 23]: 0; Plant response rating, Sunflower ([5]; 31 g ai/ha, scale 0 to 100): 0; Plant response rating (0 = no effect, 100 = complete control), Sunflower ([5]; 62 g ai/ha): 0; Plant response rating, Sunflower [5, 20]: 0; Plant response rating, Sunflower [5, 21]: 0; Barnyardgrass plant response rating [6, 24]: 10; Plant response rating, Morningglory [7, 9]: 10; Morningglory plant response rating [7, 25]: 20; Morningglory plant response rating [7, 26]: 75; Rice plant response rating [8, 16]: 15; Rice plant response rating [8, 24]: 25
